# From ChEMBL document CHEMBL1201862, “PubChem BioAssay data set” (2004)
#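 Dose response: 5 concentrations. Exposure: 48 h. Format: 96-well plates. Endpoint: linear interpolation; highest concentration if not reached. Abbreviation: GI50, concentration required for 50% inhibition of growth.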 The source made the active and inactive calls. No stated cut-off is given here; in the data, active = GI50 up to about 1.1 µM and inactive = higher.
# Tests used:
# Assay in all cases: DTP human tumour cell line panel, 48 h
# [1] = tested on: UO-31
# [2] = tested on: HCT-15
# [3] = tested on: UACC-62
# [4] = tested on: U-251
# [5] = tested on: HT-29
# [6] = tested on: OVCAR-8
# [7] = tested on: SK-MEL-5
# [8] = tested on: HCT-116
# [9] = tested on: SF-539
# [10] = tested on: SK-MEL-28
# [11] = tested on: LOX IMVI
# [12] = tested on: Hs-578T
# [13] = tested on: HOP-92
# [14] = tested on: RPMI-8226
# [15] = tested on: SNB-75
# [16] = tested on: OVCAR-4
# [17] = tested on: EKVX
# [18] = tested on: SNB-19
# [19] = tested on: SN12C
# [20] = tested on: HOP-62
# [21] = tested on: 786-0
# [22] = tested on: A549
# [23] = tested on: SW-620
# [24] = tested on: NCI/ADR-RES
# [25] = tested on: K562
# [26] = tested on: BT-549
# [27] = tested on: DU-145
# [28] = tested on: Malme-3M
# [29] = tested on: COLO 205
# [30] = tested on: SF-268
# [31] = tested on: UACC-257
# [32] = tested on: OVCAR-3
# [33] = tested on: M14
# [34] = tested on: IGROV-1
# [35] = tested on: HCC 2998
# [36] = tested on: ACHN
# [37] = tested on: SK-OV-3
# [38] = tested on: PC-3
# [39] = tested on: HL-60
# [40] = tested on: T47D
# [41] = tested on: NCI-H522
# [42] = tested on: MDA-N
# [43] = tested on: MDA-MB-231
# [44] = tested on: SF-295
# [45] = tested on: CCRF-CEM
# [46] = tested on: MOLT-4
# [47] = tested on: NCI-H226
# [48] = tested on: SK-MEL-2
# [49] = tested on: NCI-H23
# [50] = tested on: KM12
# [51] = tested on: MDA-MB-435
# [52] = tested on: OVCAR-5
# [53] = tested on: NCI-H460
# [54] = tested on: TK-10
# [55] = tested on: SR
# [56] = tested on: RXF 393
# [57] = tested on: CAKI-1
# [58] = tested on: A498
# [59] = tested on: MCF7
structure (smiles),measurement,setting,value
NCCCCCNOCCCN,GI50,[1],> 100 µM (inactive)
same,GI50,[2],> 100 µM
same,GI50,[3],> 100 µM (inactive)
same,GI50,[4],> 100 µM (inactive)
same,GI50,[5],> 100 µM (inactive)
same,GI50,[6],> 100 µM (inactive)
same,GI50,[7],> 100 µM (inactive)
same,GI50,[8],> 100 µM (inactive)
same,GI50,[9],> 100 µM (inactive)
same,GI50,[10],> 100 µM (inactive)
same,GI50,[11],> 100 µM (inactive)
same,GI50,[12],> 100 µM (inactive)
same,GI50,[13],> 100 µM (inactive)
same,GI50,[14],> 100 µM (inactive)
same,GI50,[15],63.1 µM (inactive)
same,GI50,[16],> 100 µM (inactive)
same,GI50,[17],> 100 µM (inactive)
same,GI50,[18],> 100 µM (inactive)
same,GI50,[19],> 100 µM (inactive)
same,GI50,[20],> 100 µM (inactive)
same,GI50,[21],> 100 µM (inactive)
same,GI50,[22],> 100 µM (inactive)
same,GI50,[23],> 100 µM (inactive)
same,GI50,[24],> 100 µM (inactive)
same,GI50,[25],> 100 µM (inactive)
same,GI50,[26],> 100 µM (inactive)
same,GI50,[27],> 100 µM (inactive)
same,GI50,[28],> 100 µM (inactive)
same,GI50,[29],> 100 µM (inactive)
same,GI50,[30],> 100 µM (inactive)
same,GI50,[31],> 100 µM (inactive)
same,GI50,[32],> 100 µM (inactive)
same,GI50,[33],> 100 µM (inactive)
same,GI50,[34],> 100 µM (inactive)
same,GI50,[35],> 100 µM (inactive)
same,GI50,[36],> 100 µM (inactive)
same,GI50,[37],> 100 µM (inactive)
same,GI50,[38],> 100 µM (inactive)
same,GI50,[39],> 100 µM (inactive)
same,GI50,[40],> 100 µM (inactive)
same,GI50,[41],> 100 µM (inactive)
same,GI50,[42],> 100 µM (inactive)
same,GI50,[43],> 100 µM (inactive)
same,GI50,[44],> 100 µM (inactive)
same,GI50,[45],> 100 µM (inactive)
same,GI50,[46],> 100 µM (inactive)
same,GI50,[47],> 100 µM (inactive)
same,GI50,[48],> 100 µM (inactive)
same,GI50,[49],> 100 µM (inactive)
same,GI50,[50],> 100 µM (inactive)
same,GI50,[51],> 100 µM (inactive)
same,GI50,[52],> 100 µM (inactive)
same,GI50,[53],> 100 µM (inactive)
same,GI50,[54],> 100 µM (inactive)
same,GI50,[55],> 100 µM (inactive)
CSc1nc(C#N)c(N)n1C,GI50,[1],> 100 µM (inactive)
same,GI50,[2],> 100 µM
same,GI50,[3],> 100 µM (inactive)
same,GI50,[4],> 100 µM (inactive)
same,GI50,[6],> 100 µM (inactive)
same,GI50,[7],> 100 µM (inactive)
same,GI50,[8],> 100 µM (inactive)
same,GI50,[9],> 100 µM (inactive)
same,GI50,[10],> 100 µM (inactive)
same,GI50,[11],> 100 µM (inactive)
same,GI50,[12],> 100 µM (inactive)
same,GI50,[13],> 100 µM (inactive)
same,GI50,[14],> 100 µM (inactive)
same,GI50,[16],> 100 µM (inactive)
same,GI50,[17],> 100 µM (inactive)
same,GI50,[18],> 100 µM (inactive)
same,GI50,[19],> 100 µM (inactive)
same,GI50,[20],> 100 µM (inactive)
same,GI50,[21],> 100 µM (inactive)
same,GI50,[22],> 100 µM (inactive)
same,GI50,[23],> 100 µM (inactive)
same,GI50,[24],> 100 µM (inactive)
same,GI50,[25],> 100 µM (inactive)
same,GI50,[26],> 100 µM (inactive)
same,GI50,[27],64.1 µM (inactive)
same,GI50,[28],> 100 µM (inactive)
same,GI50,[29],> 100 µM (inactive)
same,GI50,[30],> 100 µM (inactive)
same,GI50,[31],> 100 µM (inactive)
same,GI50,[32],> 100 µM (inactive)
same,GI50,[33],> 100 µM (inactive)
same,GI50,[34],> 100 µM (inactive)
same,GI50,[36],> 100 µM (inactive)
same,GI50,[37],> 100 µM (inactive)
same,GI50,[56],> 100 µM (inactive)
same,GI50,[38],> 100 µM (inactive)
same,GI50,[39],> 100 µM (inactive)
same,GI50,[40],> 100 µM (inactive)
same,GI50,[41],> 100 µM (inactive)
same,GI50,[42],> 100 µM (inactive)
same,GI50,[43],> 100 µM (inactive)
same,GI50,[44],> 100 µM (inactive)
same,GI50,[45],> 100 µM (inactive)
same,GI50,[46],> 100 µM (inactive)
same,GI50,[47],> 100 µM (inactive)
same,GI50,[48],> 100 µM (inactive)
same,GI50,[49],> 100 µM (inactive)
same,GI50,[50],> 100 µM (inactive)
same,GI50,[51],> 100 µM (inactive)
same,GI50,[52],> 100 µM (inactive)
same,GI50,[53],> 100 µM (inactive)
same,GI50,[57],> 100 µM (inactive)
same,GI50,[58],> 100 µM (inactive)
same,GI50,[54],> 100 µM (inactive)
same,GI50,[55],> 100 µM (inactive)
CCCSc1ccc2[nH]c(N3C(=O)/C(=C/c4ccccc4)N=C3c3ccccc3)cc2c1,GI50,[1],42.9 µM (inactive)
same,GI50,[59],24.4 µM (inactive)
same,GI50,[2],19.2 µM
same,GI50,[3],21.5 µM (inactive)
same,GI50,[5],16.7 µM (inactive)
same,GI50,[6],19.5 µM (inactive)
same,GI50,[7],14.2 µM (inactive)
same,GI50,[8],22.4 µM (inactive)
same,GI50,[9],18.1 µM (inactive)
same,GI50,[10],32.4 µM (inactive)
same,GI50,[11],20.4 µM (inactive)
same,GI50,[12],20.3 µM (inactive)
same,GI50,[13],> 50 µM (inactive)
same,GI50,[14],12.4 µM (inactive)
same,GI50,[15],40.6 µM (inactive)
same,GI50,[16],30 µM (inactive)
same,GI50,[17],19.1 µM (inactive)
same,GI50,[18],41.4 µM (inactive)
same,GI50,[19],30.9 µM (inactive)
same,GI50,[21],23.3 µM (inactive)
same,GI50,[22],19.5 µM (inactive)
same,GI50,[23],18.7 µM (inactive)
same,GI50,[24],16.9 µM (inactive)
same,GI50,[25],14.2 µM (inactive)
same,GI50,[26],19.9 µM (inactive)
same,GI50,[27],35.6 µM (inactive)
same,GI50,[28],24.2 µM (inactive)
same,GI50,[29],10.5 µM (inactive)
same,GI50,[30],18.4 µM (inactive)
same,GI50,[31],17 µM (inactive)
same,GI50,[33],16.6 µM (inactive)
same,GI50,[34],31.9 µM (inactive)
same,GI50,[35],15.1 µM (inactive)
same,GI50,[36],39.2 µM (inactive)
same,GI50,[56],20 µM (inactive)
same,GI50,[38],23.7 µM (inactive)
same,GI50,[39],12.1 µM (inactive)
same,GI50,[40],22.8 µM (inactive)
same,GI50,[41],12.1 µM (inactive)
same,GI50,[42],10.2 µM (inactive)
same,GI50,[45],18.4 µM (inactive)
same,GI50,[46],16.3 µM (inactive)
same,GI50,[48],0.391 µM (active)
same,GI50,[49],23.5 µM (inactive)
same,GI50,[50],15.1 µM (inactive)
same,GI50,[51],8.3 µM (inactive)
same,GI50,[52],> 50 µM (inactive)
same,GI50,[57],27.2 µM (inactive)
same,GI50,[58],27 µM (inactive)
same,GI50,[55],10.5 µM (inactive)
